In US20060147382A1, “Synergistic combination comprising roflumilast and an anticholinergic agent selected from ipratropium, oxitropium and tiotropium salts for the treatment of respiratory diseases” (Altana Pharma AG, priority 2003, published 2006):

Test system: methacholine-induced bronchoconstriction in guinea pigs
Assay: Inhibition of methacholine-induced bronchoconstriction in anaesthetized, mechanically ventilated guinea pigs
Format: in vivo, guinea pig
Settings: for Effect on methacholine-induced bronchospasm (in words): versus placebo, ANOVA and Dunnett's test, ROFLUMILAST 4 mg/kg intratracheally, tiotropium-bromide 1 μg/kg i.v.
Experimental: Inhibition of Methacholine-Induced Bronchoconstriction in Guinea Pigs by ROFLUMILAST in combination with tiotropium-bromide
To assess the inhibitory effect of tiotropium-bromide, ROFLUMILAST, and the combination of both compounds on methacholine-induced bronchoconstriction in anaesthetized, mechanically ventilated guinea pigs.
Male Dunkin Hartley guinea pigs; body weight 350-450 g when performing the experiments.
75 min before methacholine-induced bronchospasm (at −75 min) animals were anaesthetized with urethane i.p. (1.2 g/kg). At −55 min for I.v. injections the right jugular vein and for ventilation the trachea was cannulated. At −45 min NaCl 0.9% or tiotropium-bromide was administered I.v. (1 μg/kg). At −30 min lactose (10 mg/kg) or ROFLUMILAST (4 mg/kg) mixed with lactose was administered intratracheally by a dry powder aerolizer. At −10 min pancuronium-bromide (1.5 mg/kg) was administered I.v. to abolish spontaneous breathing. Animals were mechanically ventilated with 60 breath/min and a tidal volume of 7 ml/kg. Dynamic lung compliance (COM) and airway conductance (CON) were calculated with the help of a computer system from airflow and ventilation pressure signals. At t=0 min methacholine was administered i.v. (60 μg/kg) to induce bronchoconstriction.
COM and CON were determined up to 120 s after methacholine-induced bronchospasm. AUCs for 0 to 120s were determined. Inhibition was calculated based on the AUC data. Data are shown as mean ±SEM. Results were taken to be significant if p<0.05 versus placebo (ANOVA and Dunnett's multiple comparison test)

[1] = male Dunkin Hartley guinea pigs, methacholine 60 μg/kg i.v., ROFLUMILAST 4 mg/kg intratracheally at -30 min, tiotropium-bromide 1 μg/kg i.v. at -45 min

Structure (SMILES)	Inhibition of methacholine-induced airway conductance (CON) decrease, based on AUC 0 to 120 s [1] [%]	Inhibition of methacholine-induced dynamic lung compliance (COM) decrease, based on AUC 0 to 120 s [1] [%]	Effect on methacholine-induced bronchospasm (in words)
C[N+]1(C)[C@@H]2C[C@@H](OC(=O)C(O)(c3cccs3)c3cccs3)C[C@H]1[C@@H]1O[C@@H]12 [tiotropium-bromide]	5.9	12	no significant effect
O=C(Nc1c(Cl)cncc1Cl)c1ccc(OC(F)F)c(OCC2CC2)c1 [ROFLUMILAST, 3-cyclopropylmethoxy-4-difluoromethoxy-N-(3,5-dichloropyrid-4-yl)benzamide]	5.6	–	no significant effect
